Patent US10030016B2 (Sunesis Pharmaceuticals, Inc., priority 2009, dated 2018)
Where a name gives a salt, the structure may show the parent alone. Read-outs that look alike come from different tables or passages of the source.

Columns and labels:
[1] = biological target: PDK1 (Homo sapiens (Human), UniProt O15530); assay: PDK1 kinase assay (coupled PDK1/AKT/FAM-crosstide assay, IMAP fluorescence polarization); type: biochemical
Summary of the method: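 Coupled cascade: 0.75 nM PDK1 (51-359) → 10 nM AKT2 (140-467-PIFtide) → 100 nM FAM-crosstide. ATP 40 μM, 25° C, 30 min. IMAP FP (ex 485/em 530), 2 h binding. ΔmP vs conc, 4-param fit.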

[2] = test system: phospho-akt (Thr308) in PC-3 cells; assay: Inhibition of phospho-akt (Thr308) in PC-3 cells, MSD phospho-akt 308 ELISA kit; type: cell-based; details: Homo sapiens
Summary of the method: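 Serum-free 2 h compound exposure of overnight-seeded PC-3 cells, threefold dilution series; lysates analysed on blocked MSD plates (3% BSA) for Thr308-phosphorylated Akt, normalised between DMSO and 5 μM wortmannin wells.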

[3] = inhibition of phospo-PDK1 in vitro
[4] = inhibition of P308 Akt in PC-3 cells, 2 hours, no serum, MSD, read-out: EC50
[5] = PC-3, 2 h, inhibition of P308 Akt in PC-3 cells, 2 hours, no serum, MSD, read-out: EC50
[6] = inhibition of P308 Akt in PC-3 cells using MSD, 2 hours, no serum, read-out: EC50

Chain of PDK1 (O15530 51-359): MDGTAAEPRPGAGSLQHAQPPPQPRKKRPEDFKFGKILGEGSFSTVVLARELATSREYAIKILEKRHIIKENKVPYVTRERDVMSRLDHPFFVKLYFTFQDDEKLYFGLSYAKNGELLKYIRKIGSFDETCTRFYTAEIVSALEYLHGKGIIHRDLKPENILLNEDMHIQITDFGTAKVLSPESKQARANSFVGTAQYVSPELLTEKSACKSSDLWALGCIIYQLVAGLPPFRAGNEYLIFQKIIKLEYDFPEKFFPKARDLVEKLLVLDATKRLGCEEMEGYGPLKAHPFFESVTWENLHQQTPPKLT

IC50 [1, 3] | EC50 [2, 4] | IC50 ([1]; inhibition of PDK1 in vitro) | EC50 [2, 6] | Compound | further results
< 100 nM | 1000 to 10000 nM |  |  | C[C@H](NC(=O)c1cccnc1NCc1ccc(-c2ccc3ncnc(NC4COC4)c3c2)s1)c1ccc(F)c(F)c1 [Example 4.35] | 
< 100 nM | < 1000 nM |  |  | C[C@H](NC(=O)c1cccnc1NCc1ccc(-c2cnc3[nH]ncc3c2)cc1)c1ccc(F)c(F)c1 [Example 2.39, N-[(S)-1-(3,4-Difluoro-phenyl)-ethyl]-2-[4-(1H-pyrazolo[3,4-b]pyridin-5-yl)benzyl-amino]-nicotinamide] | 
< 100 nM | < 1000 nM |  |  | Nc1ncnc2ccc(-c3ccc(CNc4ncccc4C(=O)NCc4ccc(F)c(F)c4)s3)cc12 [Example 4.4, 2-(((5-(4-aminoquinazolin-6-yl)thiophen-2-yl)methyl)amino)-N-(3,4-difluorobenzyl)nicotinamide] | 
< 100 nM | < 1000 nM |  |  | N#Cc1cnc(N[C@@H](COc2ccc3[nH]c(=O)[nH]c3c2)c2ccccc2)c(C(=O)NCc2ccc(F)c(F)c2)n1 [Example 16.11, (R)-6-cyano-N-(3,4-difluorobenzyl)-3-(2-(2-oxo-2,3-dihydro-1H-benzo[d]imidazol-5-yloxy)-1-phenylethylamino) pyrazine-2-carboxamide] | 
< 100 nM | 1000 to 10000 nM |  |  | Cn1nc(Nc2ncccc2C(=O)NCc2ccc(F)c(F)c2)c2cc(-c3c[nH]c4ncccc34)ccc21 [Example 14.1, N-(3,4-difluorobenzyl)-2-(1-methyl-5-(1H-pyrrolo[2,3-b]pyridin-3-yl)-1H-indazol-3-ylamino)nicotinamide] | 
1000 to 5000 nM | > 10000 nM |  |  | Nc1ncnc2ccc(-c3ccc(CNc4ncccc4C(=O)NCc4ccccn4)s3)cc12 [Example 3.25, 2-({[5-(4-aminoquinazolin-6-yl)thiophen-2-yl]methyl}amino)-N-(pyridin-2-ylmethyl)pyridine-3-carboxamide (TFA salt)] | 
> 5000 nM | > 10000 nM |  |  | COc1cc(NC(=O)c2cccnc2NCc2ccc(-c3ccc4ncnc(N)c4c3)s2)cc(C(F)(F)F)c1 [Example 3.52, 2-({[5-(4-aminoquinazolin-6-yl)thiophen-2-yl]methyl}amino)-N-[3-methoxy-5-(trifluoromethyl)phenyl]pyridine-3-carboxamide (TFA salt)] | 
< 100 nM | < 1000 nM |  |  | COCCNC(=O)c1c(C)[nH]c(/C=C2\C(=O)Nc3cc(/C=C/CNc4ncccc4C(=O)NCc4ccc(F)c(F)c4)ccc32)c1C [Example 15.19, N-(3,4-difluorobenzyl)-2-((E)-3-((Z)-3-((4-(2-methoxyethylcarbamoyl)-3,5-dimethyl-1H-pyrrol-2-yl]-methylene)-2-oxoindolin-6-yl)allylamino) nicotinamide] | 
100 to 1000 nM | 1000 to 10000 nM |  |  | Nc1ncnc2ccc(-c3ccc(CNc4ncccc4C(=O)NCc4cccnc4)s3)cc12 [Example 3.37, 2-({[5-(4-aminoquinazolin-6-yl)thiophen-2-yl]methyl}amino)-N-(pyridin-3-ylmethyl) pyridine-3-carboxamide (TFA salt)] | 
< 100 nM | < 1000 nM |  |  | C[C@H](NC(=O)c1cccnc1NC/C=C/c1ccc2c(c1)NC(=O)/C2=C\c1cnc[nH]1)c1ccc(F)c(F)c1 [Example 15.5, 2-((E)-3-((Z)-3-((1H-imidazol-5-yl)methylene)-2-oxoindolin-6-yl)allylamino)-N-((S)-1-(3,4-difluorophenyl)ethyl)nicotinamide] | 
100 to 1000 nM | > 10000 nM |  |  | C[C@H](NC(=O)c1cccnc1NCc1ccc(-c2ccc3ncnc(N)c3c2)s1)c1ccc(F)cc1F [Example 3.61, (S)-2-(((5-(4-aminoquinazolin-6-yl)thiophen-2-yl)methyl)amino)-N-(1-(2,4-difluorophenyl)ethyl) nicotinamide (TFA salt)] | 
100 to 1000 nM | < 1000 nM |  |  | C[C@H](NC(=O)c1nc(C#N)cnc1NCc1ccc(-c2ccc3ncnc(N)c3c2)s1)c1ccc(F)c(F)c1 [Ex. 10.9, 3-({[5-(4-aminoquinazolin-6-yl)thiophen-2-yl]methyl}amino)-6-cyano-N-[(1S)-1-(3,4-difluorophenyl)ethyl] pyrazine-2-carboxamide] | 

Continued, compound first:

Compound | IC50 [1, 3] | EC50 [2, 4] | IC50 ([1]; inhibition of PDK1 in vitro) | EC50 [2, 6] | further results
CCS(=O)(=O)Nc1cnc(NCc2ccc(-c3ccc4ncnc(N)c4c3)s2)c(C(=O)NCc2ccc(F)c(F)c2)c1 [Example 8.6.2, 2-({[5-(4-aminoquinazolin-6-yl)thiophen-2-yl]methyl}amino)-N-(3,4-difluorobenzyl)-5-[(ethylsulfonyl)amino] pyridine-3-carboxamide] | 100 to 1000 nM |  |  |  | EC50 [2, 5]: < 1000 nM
C[C@H](NC(=O)c1cc(C#N)cnc1NCc1ccc(-c2cnc(N)c(C(=O)NCC(O)CO)c2)cc1)c1ccc(F)cc1 (some centres unmarked) [Example 206] |  |  | < 100 nM | 1000 to 10000 nM | 
CC(C)C(=O)Nc1cnc(NCc2ccc(-c3ccc4ncnc(N)c4c3)s2)c(C(=O)NCc2ccc(F)c(F)c2)c1 [Example 8.5.3, 2-({[5-(4-aminoquinazolin-6-yl)thiophen-2-yl]methyl}amino)-N-(3,4-difluorobenzyl)-5-[(2-methylpropanoyl)amino] pyridine-3-carboxamide] | 100 to 1000 nM | 1000 to 10000 nM |  |  | 
C[C@H](NC(=O)c1cc(C#N)cnc1NCc1ccc(-c2cnc(N)nc2)cc1)c1ccc(F)cc1 [Example 119, (S)-2-(4-(2-amino-pyrimidin-5-yl)benzylamino)-5-cyano-N-(1-(4-fluorophenyl)ethyl) nicotinamide] |  |  | < 100 nM | > 10000 nM | 
Nc1ncnc2ccc(-c3ccc(CNc4ncc(NC(=O)C5CCCC5)cc4C(=O)NCc4ccc(F)c(F)c4)s3)cc12 [Example 8.5.5, 2-({[5-(4-aminoquinazolin-6-yl)thiophen-2-yl]methyl}amino)-5-[(cyclopentylcarbonyl)amino]-N-(3,4-difluorobenzyl) pyridine-3-carboxamide] | 100 to 1000 nM |  |  |  | EC50 [2, 5]: 1000 to 10000 nM
C[C@H](NC(=O)c1cc(C#N)cnc1NCc1ccc(-c2cnc3[nH]c(=O)[nH]c3c2)cc1)c1ccc(F)c(F)c1 [Example 361, (S)-5-cyano-N-(1-(3,4-difluorophenyl)ethyl)-2-(4-(2-oxo-2,3-dihydro-1H-imidazo[4,5-b]pyridin-6-yl)benzylamino) nicotinamide] |  |  | < 100 nM | < 1000 nM | 
C[C@H](NC(=O)c1cc(C#N)cnc1NCc1ccc(-c2cnc(N)c(C(=O)NCCCN(C)C)n2)cc1)c1ccc(F)cc1 [Example 211] |  |  | < 100 nM | 1000 to 10000 nM | 
Nc1n[nH]c2ncc(-c3ccc(CNc4ncc(C(F)(F)F)cc4C(=O)NCc4ccc(Cl)c(F)c4)cc3)cc12 [Example 419, 2-(4-(3-amino-1H-pyrazolo [3,4-b]pyridin-5-yl)benzylamino)-N-(4-chloro-3-fluorobenzyl)-5-(trifluoromethyl)nicotinamide] |  |  | < 100 nM | 1000 to 10000 nM | 
Nc1n[nH]c2ncc(-c3ccc(CNc4ncc(C(F)(F)F)cc4C(=O)Nc4ccc(F)cc4)cc3)nc12 [Example 184] |  |  | < 100 nM | < 1000 nM | 
CNC(=O)c1cc(S(=O)(=O)N2CCCCC2)cnc1NCc1ccc(-c2ccc3ncnc(N)c3c2)s1 [Example 8.6.19] | > 5000 nM | > 10000 nM |  |  | 
Nc1n[nH]c2ncc(-c3ccc(CNc4ncc(C(F)(F)F)cc4C(=O)N4CCc5cc(F)ccc54)cc3)cc12 [Example 30, (2-(4-(3-amino-1H-pyrazolo[3,4-b]pyridin-5-yl)benzylamino)-5-(trifluoromethyl)pyridin-3-yl)(5-fluoroindolin-1-yl)methanone] | < 100 nM | < 1000 nM |  |  | 
Cn1cnc2cnc(-c3ccc(CNc4nc5c(cc4C(=O)NCc4ccc(F)c(F)c4)CCC5)s3)cc21 [Example 8.15.2, N-(3,4-difluorobenzyl)-2-({[5-(1-methyl-1H-imidazo[4,5-c]pyridin-6-yl)thiophen-2-yl]methyl}amino)-6,7-dihydro-5H-cyclopenta[b] pyridine-3-carboxamide] | > 5000 nM | > 10000 nM |  |  | 
COC(=O)C[C@@H](Nc1ncc(C#N)cc1C(=O)N[C@@H](C)c1ccc(F)cc1)c1ccc(-c2c[nH]c3ncnc(N)c23)cc1 [Example 44, (R)-methyl 3-(4-(4-amino-7H-pyrrolo[2,3-d]pyrimidin-5-yl)phenyl)-3-(5-cyano-3-((S)-1-(4-fluorophenyl)ethylcarbamoyl)pyridin-2-ylamino)propanoate] |  |  |  |  | IC50 [1]: < 100 nM; EC50 ([2]; PC-3, 2 h): 1000 to 10000 nM
Nc1ncnn2ccc(-c3ccc(CNc4ncc(C(F)(F)F)cc4C(=O)NCc4ccc(F)c(F)c4)cc3)c12 [Example 176, 2-[4-(4-Amino-pyrrolo [2,1-f][1,2,4]triazin-5-yl)-benzylamino]-N-(3,4-difluoro-benzyl)-5-trifluoromethyl-nicotinamide] |  |  | < 100 nM | 1000 to 10000 nM | 
Nc1ncnc2c1c(-c1ccc(CNc3ncc(C(F)(F)F)cc3C(=O)Nc3ccc(F)cc3)cc1)cn2CCCO [Example 322, 2-(4-(4-amino-7-(3-hydroxypropyl)-7H-pyrrolo [2,3-d]pyrimidin-5-yl)benzylamino)-N-(4-fluorophenyl)-5-(trifluoromethyl)nicotinamide] |  |  | < 100 nM | < 1000 nM | 
C[C@H](NC(=O)c1cc(C#N)cnc1NCc1ccc(-c2cnc(N)c(CO)n2)cc1)c1ccc(F)cc1 [Example 240, (S)-2-(4-(5-amino-6-(hydroxymethyl)pyrazin-2-yl)benzylamino)-5-cyano-N-(1-(4-fluorophenyl)ethyl)nicotinamide] |  |  | < 100 nM | < 1000 nM | 
